# In patent US20250136606A1, “MODULATORS OF TRPML, THEIR COMPOSITIONS AND METHODS OF USE” (Caraway Therapeutics, Inc., priority 2021, published 2025):
# Columns and labels:
# Format in all cases: cell-based
# Details in all cases: fluorescent calcium assay
# TRPML1 = TRPML1 (Homo sapiens, UniProt Q9GZU1); assay: Fluorescent TRPML1 assay (Fluo4-AM calcium fluorescence in doxycycline-induced HEK-293 Trex cells)
# Procedure, shortened: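 hTRPML1 (mutated for cell-surface expression) in HEK-293 Trex, dox 0.5 ug/mL o/n; Fluo4-AM 1 uM ~60 min, then ~60 min de-esterification, dark; modified Ringer's + 10 mM Ca. Cmpds 20 uM–6 nM final, half-log, n=3. Ex480/Em540; % activity vs ctrls; EC50 by nonlinear regression.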
# TRPML2 = molecular target: T1, TRPML2 (Homo sapiens, UniProt Q8IZK6); assay: Fluorescent TRPML2 assay (performed as for TRPML1, substituting the TRPML2 subtype)
# T1 construct: expressed in transfected cells
# T1 sequence (Q8IZK6 1-566): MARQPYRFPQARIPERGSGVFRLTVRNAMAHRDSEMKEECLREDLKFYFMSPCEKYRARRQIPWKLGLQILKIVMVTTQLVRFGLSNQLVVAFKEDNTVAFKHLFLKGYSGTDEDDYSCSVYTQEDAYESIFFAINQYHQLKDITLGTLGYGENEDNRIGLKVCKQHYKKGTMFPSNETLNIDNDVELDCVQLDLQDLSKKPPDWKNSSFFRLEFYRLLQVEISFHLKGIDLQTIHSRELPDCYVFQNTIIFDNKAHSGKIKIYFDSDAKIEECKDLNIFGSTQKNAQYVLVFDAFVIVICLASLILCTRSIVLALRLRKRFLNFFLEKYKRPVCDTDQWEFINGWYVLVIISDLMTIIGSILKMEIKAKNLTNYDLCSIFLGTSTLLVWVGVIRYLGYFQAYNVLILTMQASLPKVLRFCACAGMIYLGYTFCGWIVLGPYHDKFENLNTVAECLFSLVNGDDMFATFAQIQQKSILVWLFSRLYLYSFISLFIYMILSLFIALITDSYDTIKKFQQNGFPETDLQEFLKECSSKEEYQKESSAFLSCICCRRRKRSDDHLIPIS
# Procedure, shortened: (§1)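 Calcium-influx readout: Fluo4 fluorescence at 480/540 nm, normalised to positive and negative controls per plate, EC50 fitted by non-linear regression. Cells were HEK-293 Trex stable lines, channel expression induced overnight with 0.5 ug/mL doxycycline; tested at 20 micromolar down to 6 nanomolar final, half-log steps, triplicate.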
# TRPML3 = molecular target: T2, TRPML3 (Homo sapiens, UniProt Q8TDD5); assay: Fluorescent TRPML3 assay (performed as for TRPML1, substituting the TRPML3 subtype)
# T2 construct: expressed in transfected cells
# T2 sequence (Q8TDD5 1-553): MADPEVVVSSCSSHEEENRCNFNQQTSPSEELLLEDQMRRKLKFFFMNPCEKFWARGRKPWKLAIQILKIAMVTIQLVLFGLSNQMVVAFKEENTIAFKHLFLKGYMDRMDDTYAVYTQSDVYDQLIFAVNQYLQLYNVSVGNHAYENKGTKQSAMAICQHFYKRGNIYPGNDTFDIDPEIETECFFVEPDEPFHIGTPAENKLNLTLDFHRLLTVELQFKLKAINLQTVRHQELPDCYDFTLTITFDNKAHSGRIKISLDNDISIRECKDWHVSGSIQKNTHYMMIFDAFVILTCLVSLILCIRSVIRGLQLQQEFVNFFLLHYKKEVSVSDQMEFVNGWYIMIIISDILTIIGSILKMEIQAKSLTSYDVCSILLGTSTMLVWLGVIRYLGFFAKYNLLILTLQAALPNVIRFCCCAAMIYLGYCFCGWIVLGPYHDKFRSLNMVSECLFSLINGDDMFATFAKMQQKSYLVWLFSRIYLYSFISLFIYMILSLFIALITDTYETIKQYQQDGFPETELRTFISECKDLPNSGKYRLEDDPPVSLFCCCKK
# Procedure, shortened: as §1
# Sequence of TRPML1 (Q9GZU1 whole entry L15A/L16A/L577A/L578A, form open): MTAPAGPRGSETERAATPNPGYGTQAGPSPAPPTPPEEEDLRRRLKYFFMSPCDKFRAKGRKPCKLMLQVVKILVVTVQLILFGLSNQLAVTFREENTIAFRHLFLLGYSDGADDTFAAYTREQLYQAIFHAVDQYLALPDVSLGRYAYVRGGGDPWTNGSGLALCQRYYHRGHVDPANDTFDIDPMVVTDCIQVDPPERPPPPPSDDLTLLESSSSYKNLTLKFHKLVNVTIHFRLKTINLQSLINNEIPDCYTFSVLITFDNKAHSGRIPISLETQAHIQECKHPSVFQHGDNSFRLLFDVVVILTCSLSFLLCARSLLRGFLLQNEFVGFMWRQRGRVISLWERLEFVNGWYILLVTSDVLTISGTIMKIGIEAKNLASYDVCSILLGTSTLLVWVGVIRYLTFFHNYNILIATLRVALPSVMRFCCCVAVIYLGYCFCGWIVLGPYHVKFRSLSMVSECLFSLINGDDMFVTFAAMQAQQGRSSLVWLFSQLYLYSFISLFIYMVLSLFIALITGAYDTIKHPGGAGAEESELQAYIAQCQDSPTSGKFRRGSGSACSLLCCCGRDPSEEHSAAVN
SMILES,EC50 (TRPML1) [nM],EC50 (TRPML2) [nM],EC50 (TRPML3) [nM]
"C[C@H]1CN(C(=O)OC(C)(C)C)CCN1c1ncnc2c1c(C1CCOCC1)cn2-c1cc(F)cc(F)c1 [Compound 468, tert-butyl (S)-4-(7-(3,5-difluorophenyl)-5-(tetrahydro-2H-pyran-4-yl)-7H-pyrrolo[2,3-d]pyrimidin-4-yl)-3-methylpiperazine-1-carboxylate]",100 to 500,> 2000,100 to 500
"C[C@@H]1CN(C(=O)OC(C)(C)C)CCN1c1ncnc2c1c(C1CCOCC1)cn2-c1cccc(F)c1 [Compound 469, tert-butyl (R)-4-(7-(3-fluorophenyl)-5-(tetrahydro-2H-pyran-4-yl)-7H-pyrrolo[2,3-d]pyrimidin-4-yl)-3-methylpiperazine-1-carboxylate]",100 to 500,500 to 2000,100 to 500
"C[C@@H]1CN(C(=O)OC(C)(C)C)CCN1c1ncnc2c1c(C1=CCOCC1)cn2-c1cccc(F)c1 [Compound 471, tert-butyl (R)-4-(5-(3,6-dihydro-2H-pyran-4-yl)-7-(3-fluorophenyl)-7H-pyrrolo[2,3-d]pyrimidin-4-yl)-3-methylpiperazine-1-carboxylate]",500 to 2000,500 to 2000,100 to 500
"C[C@H]1CN(C(=O)OC(C)(C)C)CCN1c1ncnc2c1c(C1=CCOCC1)cn2-c1cccc(F)c1 [Compound 472, tert-butyl (S)-4-(5-(3,6-dihydro-2H-pyran-4-yl)-7-(3-fluorophenyl)-7H-pyrrolo[2,3-d]pyrimidin-4-yl)-3-methylpiperazine-1-carboxylate]",100 to 500,500 to 2000,100 to 500
"C[C@H]1CN(C(=O)OC(C)(C)C)CCN1c1ncnc2c1c(C1=CCOCC1)cn2-c1cc(F)cc(F)c1 [Compound 473, tert-butyl (S)-4-(7-(3,5-difluorophenyl)-5-(3,6-dihydro-2H-pyran-4-yl)-7H-pyrrolo[2,3-d]pyrimidin-4-yl)-3-methylpiperazine-1-carboxylate]",100 to 500,500 to 2000,100 to 500
"C[C@H]1CN(C(=O)OC(C)(C)C)CCN1c1ncnc2c1c(C1COC1)cn2-c1cccc(F)c1 [Compound 474, tert-butyl (S)-4-(7-(3-fluorophenyl)-5-(oxetan-3-yl)-7H-pyrrolo[2,3-d]pyrimidin-4-yl)-3-methylpiperazine-1-carboxylate]",> 2000,> 2000,> 2000
"C[C@H]1CN(C(=O)OC(C)(C)C)CCN1c1ncnc2c1c(C1COC1)cn2-c1cc(F)cc(F)c1 [Compound 475, tert-butyl (S)-4-(7-(3,5-difluorophenyl)-5-(oxetan-3-yl)-7H-pyrrolo[2,3-d]pyrimidin-4-yl)-3-methylpiperazine-1-carboxylate]",500 to 2000,> 2000,100 to 500
"Cc1cn(-c2cc(C#N)ccn2)c2ncnc(N3C[C@@H](C)N(C(=O)OC(C)(C)C)C[C@@H]3C)c12 [Compound 477, tert-butyl (2R,5S)-4-(7-(4-cyanopyridin-2-yl)-5-methyl-7H-pyrrolo[2,3-d]pyrimidin-4-yl)-2,5-dimethylpiperazine-1-carboxylate]",< 100,< 100,< 100
"CCc1cn(-c2cc(C#N)ccn2)c2ncnc(N3C[C@@H](C)N(C(=O)OC(C)(C)C)C[C@@H]3C)c12 [Compound 479, tert-butyl (2R,5S)-4-(7-(4-cyanopyridin-2-yl)-5-ethyl-7H-pyrrolo[2,3-d]pyrimidin-4-yl)-2,5-dimethylpiperazine-1-carboxylate]",< 100,< 100,< 100
"Cc1cn(-c2cc(F)ccn2)c2ncnc(N3C[C@@H](C)N(C(=O)OC(C)(C)C)C[C@@H]3C)c12 [Compound 480, tert-butyl (2R,5S)-4-(7-(4-fluoropyridin-2-yl)-5-methyl-7H-pyrrolo[2,3-d]pyrimidin-4-yl)-2,5-dimethylpiperazine-1-carboxylate]",< 100,500 to 2000,< 100
"C[C@H]1CN(C(=O)OC(C)(C)C)CCN1c1ncnc2c1c(C(F)(F)F)cn2-c1cc(C#N)ccn1 [Compound 481, tert-butyl (S)-4-(7-(4-cyanopyridin-2-yl)-5-(trifluoromethyl)-7H-pyrrolo[2,3-d]pyrimidin-4-yl)-3-methylpiperazine-1-carboxylate]",< 100,< 100,< 100
"CC(C)(C)OC(=O)N1CCCN(c2ncnc3c2c(C2CC2)cn3-c2cc(C#N)ccn2)CCC1 [Compound 482, tert-butyl 5-(7-(4-cyanopyridin-2-yl)-5-cyclopropyl-7H-pyrrolo[2,3-d]pyrimidin-4-yl)-1,5-diazocane-1-carboxylate]",< 100,100 to 500,< 100
"C[C@@H]1CN(c2ncnc3c2c(C(F)(F)F)cn3-c2cc(C#N)ccn2)[C@@H](C)CN1C(=O)OC(C)(C)C [Compound 483, tert-butyl (2R,5S)-4-(7-(4-cyanopyridin-2-yl)-5-(trifluoromethyl)-7H-pyrrolo[2,3-d]pyrimidin-4-yl)-2,5-dimethylpiperazine-1-carboxylate]",< 100,< 100,< 100
"CCN(CCOC)c1cn(-c2cc(C#N)ccn2)c2ncnc(N3CCN(C(=O)OC(C)(C)C)C[C@@H]3C)c12 [Compound 486, tert-butyl (S)-4-(7-(4-cyanopyridin-2-yl)-5-(ethyl(2-methoxyethyl)amino)-7H-pyrrolo[2,3-d]pyrimidin-4-yl)-3-methylpiperazine-1-carboxylate]",< 100,100 to 500,< 100

# Second part, the compound after the results:
EC50 (TRPML1) [nM],EC50 (TRPML2) [nM],EC50 (TRPML3) [nM],SMILES
< 100,< 100,< 100,"Cc1cn(-c2cc(C#N)ccn2)c2ncnc(N3CCN(C(=O)OC(C)(C)C)C[C@@H]3C)c12 [Compound 476, tert-butyl (S)-4-(7-(4-cyanopyridin-2-yl)-5-methyl-7H-pyrrolo [2,3-d]pyrimidin-4-yl)-3-methylpiperazine-1-carboxylate]"
< 100,< 100,< 100,"CCc1cn(-c2cc(C#N)ccn2)c2ncnc(N3CCN(C(=O)OC(C)(C)C)C[C@@H]3C)c12 [Compound 478, tert-butyl (S)-4-(7-(4-cyanopyridin-2-yl)-5-ethyl-7H-pyrrolo[2,3-d]pyrimidin-4-yl)-3-methylpiperazine-1-carboxylate]"
< 100,100 to 500,< 100,"C[C@H]1CN(C(=O)OC(C)(C)C)CCN1c1ncnc2c1c(C(C)(C)O)cn2-c1cc(C#N)ccn1 [Compound 484, tert-butyl (S)-4-(7-(4-cyanopyridin-2-yl)-5-(2-hydroxypropan-2-yl)-7H-pyrrolo[2,3-d]pyrimidin-4-yl)-3-methylpiperazine-1-carboxylate]"
< 100,500 to 2000,500 to 2000,"C[C@H]1CN(C(=O)OC(C)(C)C)CCN1c1ncnc2c1c(N1CCCC1)cn2-c1ncc(C#N)s1 [Compound 485, tert-butyl (S)-4-(7-(5-cyanothiazol-2-yl)-5-(pyrrolidin-1-yl)-7H-pyrrolo[2,3-d]pyrimidin-4-yl)-3-methylpiperazine-1-carboxylate]"
< 100,< 100,< 100,"CCCOc1cn(-c2cc(C#N)ccn2)c2ncnc(N3CCN(C(=O)OC(C)(C)C)C[C@@H]3C)c12 [Compound 487, tert-butyl (S)-4-(7-(4-cyanopyridin-2-yl)-5-propoxy-7H-pyrrolo[2,3-d]pyrimidin-4-yl)-3-methylpiperazine-1-carboxylate]"
< 100,< 100,< 100,"C[C@@H]1CN(c2ncnc3c2c(N2CCC2)cn3-c2cc(C#N)ccn2)[C@@H](C)CN1C(=O)OC(C)(C)C [Compound 489, tert-butyl (2R,5S)-4-(5-(azetidin-1-yl)-7-(4-cyanopyridin-2-yl)-7H-pyrrolo[2,3-d]pyrimidin-4-yl)-2,5-dimethylpiperazine-1-carboxylate]"
